{"source": "patent US20250127845A1", "about": "“MEDICINAL USES OF OLIGOPEPTIDES IN COMBINATION WITH AN ANTIANDROGEN” (HBC IMMUNOLOGY INC., priority 2022, published 2025)", "assay_type_in_all_cases": "cell-based, human", "key": {"[1]": {"tested_on": "ferritin heavy chain 1 (FTH1) mRNA", "test": "FTH1 gene expression by qRT-PCR in PC3 cells", "method": "(§1) Gene Expression. LNCaP, PC-3, VCaP, and VCaP-EnzR cells were seeded in 24-well plates and maintained in RPMI1640 medium supplemented with 2 mmol/L L-glutamine. 100 U/mL penicillin, […] streptomycin, and 10% heat-inactivated fetal bovine serum at 37° C. in a humidified 5% CO2 atmosphere. […] SPH absent wells (DMSO 0.04%) were used as the negative control. All experiments were run in triplicate.\n(§2) Samples were studied for expression of the ferritin heavy chain 1 (FTH1) and transferrin receptor 1 ([…]) genes. Total RNA was extracted from cell pellets using the UPzol reagent (Biotechrabbit), followed by DNAse treatment (DNAse TURBO) according to the manufacturers' protocols. Complementary DNA (cDNA) was synthesized with the High Capacity cDNA Reverse Transcription Kit (Applied Biosystems) using random hexamers. Gene expression levels were measured by qRT-PCR.\n(§3) 1 μl of cDNA (corresponding to 50 ng of reverse transcribed RNA) was amplified by Qpcr (QuantStudio™ 6 Flex Real-Time PCR System), using TaqMan™ Universal PCR Master Mix (Catalog No. 4304437) and a TaqMan™ assay (Roche Molecular Systems, Inc., Pleasanton, CA). FTH1 and TFRC gene expression was estimated relative to expression of the housekeeping gene, beta-actin (ACTB), following the standard formula: 2-ΔCt. TaqMan probe IDs used include: (i) FTH1, Hs01694011_s1; (ii) TFRC, Hs00951083_m1; and (iii) ACTB, Hs01060665_g1. […]"}, "[2]": {"tested_on": "transferrin receptor 1 (TFRC) mRNA", "test": "TFRC gene expression by qRT-PCR in PC3 cells", "method": "as §1, §2, §3"}, "[3]": {"tested_on": "ferritin heavy chain 1 (FTH1) mRNA", "test": "FTH1 gene expression by qRT-PCR in LNCaP cells", "method": "as §1, §2, §3"}, "LNCaP cells": {"tested_on": "LNCaP cells", "test": "Clonogenic assay, LNCaP cells", "conditions": "for relative percent colony survival / minimal inhibitory concentration (MIC) of bicalutamide: LNCaP; for minimal inhibitory concentration (MIC) of bicalutamide: concentration that begins to inhibit colony formation", "method": "(§4) Test Solutions. SPH test solutions were prepared by adding 10 μg, 40 μg, or 160 μg of SPH powder to 1 ml of DMEM containing 0.3% FBS+2% DMSO and sonicating for 10 min just prior to use. Bicalutamide, referred to herein as BIC, (Sigma-Aldrich, Catalog No. B9061) test solutions were prepared by adding 0.43 or 4.3 μg to 1 ml (1 μM and 10 μM) of DMEM containing 0.3% FBS+2% DMSO and sonicating for 10 min just prior to use.\n(§5) Cell Culture. The C4 subline (CRL-3313™, RRID: CVCL 4783), which was derived from the human prostate carcinoma cell line LNCaP, was obtained from ATCC (Manassas, VA). C4, which is referred to herein as LNCaP, is an exemplary androgen receptor-positive (AR+ve) cell line that has an epithelial-like morphology and a low metastatic potential. The PC-3 cell line (CRL-1435, RRID: CVCL_0035) was obtained from ATCC (Manassas, VA). PC-3 is an exemplary androgen receptor-negative (AR−ve) cell line that has an epithelial morphology and a high metastatic potential. The Vertebral-Cancer of the Prostate (VCaP) cell line was obtained from Sigma-Aldrich, USA (Catalog No. 06020201). VCaP is a human cell line with an epithelial morphology that was established from a metastatic prostate cancer lesion (Korenchuk et al., In Vivo, 15(2):163˜168, 2001). VCaP cells are androgen receptor-positive and express high levels of prostate-specific antigen. The VCaP-EnzR cell line was also obtained from Sigma-Aldrich, USA (Catalog No. SCC421). […] VCaP-EnzR cells are enzalutamide-resistant and therefore are a suitable model for studying castration-resistant prostate cancer. All cell lines were cultured in RPMI1640 supplemented with 2 mmol/L L-glutamine. 100 U/mL penicillin, […] streptomycin, and 10% heat-inactivated fetal bovine serum. All cells were certified negative for Mycoplasma.\n(§6) Clonogenic Assay. Confluent cells were trypsinized and seeded at densities ranging from 3000 to 5000 cells in 10 cm Petri dishes, depending on the cell line, as recommended in the ATCC or Sigma-Aldrich product sheets. […] Treatments were applied daily for 5 days without media changes. The colonies were allowed to develop over 12 days, stained with crystal violet and automatically counted using a TC20 Automated Cell Counter (Bio Rad, Hercules, CA). Each assay was internally controlled using untreated cells (cell media+0.1% DMSO). Relative plating efficiencies were expressed as percentages relative to the plating efficiency of untreated cells and reported as the relative percent colony survival value. All experiments were performed in triplicate.\n(§7) All oligopeptides were tested in combination with BIC or ENZ in clonogenic assays. […] SPH absent wells (DMSO 0.04%) were used as the negative control. All experiments were run in triplicate."}, "PC3 cells": {"tested_on": "PC3 cells", "test": "Clonogenic assay, PC3 cells", "method": "as §4, §5, §6, §7"}, "[4]": {"tested_on": "transferrin receptor 1 (TFRC) mRNA", "test": "TFRC gene expression by qRT-PCR in LNCaP cells", "method": "as §1, §2, §3"}, "[5]": {"tested_on": "ferritin heavy chain 1 (FTH1) mRNA", "test": "FTH1 gene expression by qRT-PCR in VCaP cells", "conditions": "oligopeptide at 10 μM with […] ENZ", "method": "as §1, §2, §3"}, "[6]": {"tested_on": "transferrin receptor 1 (TFRC) mRNA", "test": "TFRC gene expression by qRT-PCR in VCaP cells", "conditions": "oligopeptide at 10 μM with […] ENZ", "method": "as §1, §2, §3"}, "[7]": {"tested_on": "ferritin heavy chain 1 (FTH1) mRNA", "test": "FTH1 gene expression by qRT-PCR in VCaP-EnzR cells", "conditions": "oligopeptide at 10 μM with […] μM ENZ", "method": "as §1, §2, §3"}, "[8]": {"tested_on": "transferrin receptor 1 (TFRC) mRNA", "test": "TFRC gene expression by qRT-PCR in VCaP-EnzR cells", "conditions": "oligopeptide at 10 μM with […] μM ENZ", "method": "as §1, §2, §3"}, "[9]": {"conditions": "1 μM BIC alone, relative to ACTB"}, "[10]": {"conditions": "oligopeptide at 10 μM with 10 μM BIC"}, "[11]": {"conditions": "oligopeptide at 10 μM with 10 μM BIC, listed as FT-007-B"}, "[12]": {"conditions": "oligopeptide at 10 μM with 0.4 μM BIC"}, "[13]": {"conditions": "oligopeptide at 10 μM with 0.4 μM BIC, listed as FT-006-B"}, "[14]": {"conditions": "oligopeptide at 10 μM with 10 μM BIC, listed as FT-008-B"}, "[15]": {"conditions": "oligopeptide at 10 μM with 0.4 μM BIC, listed as FT-008-B"}}, "note": "Where “and” joins values, the source holds several entries; their conditions need not be identical. Identical values can stand only once."}
{"molecule": "CC(O)(CS(=O)(=O)c1ccc(F)cc1)C(=O)Nc1ccc(C#N)c(C(F)(F)F)c1", "note": "(centres unmarked) [BIC, bicalutamide, reference compound]", "values": [{"measurement": "FTH1 Fold Change (single replicates)", "setting": "[1]; 10 μM BIC alone", "result": "0.9 and 1.0 and 1.2"}, {"measurement": "FTH1 Fold Change, Average", "setting": "[1]; 10 μM BIC alone", "result": 1.0}, {"measurement": "TFRC Fold Change (single replicates)", "setting": "[2]; 10 μM BIC alone", "result": "1.0 and 1.1 and 1.2"}, {"measurement": "TFRC Fold Change, Average", "setting": "[2]; 10 μM BIC alone", "result": 1.1}, {"measurement": "FTH1 Fold Change (single replicates)", "setting": "[3]; [9]", "result": "1.0 (2×) and 1.1"}, {"measurement": "FTH1 Fold Change, Average", "setting": "[3]; [9]", "result": 1.0}, {"measurement": "IC50", "setting": "LNCaP cells; Homo sapiens, LNCaP clonogenic assay, read-out: IC50 of bicalutamide", "result": 0.4, "unit": "µM"}, {"measurement": "relative percent colony survival", "setting": "LNCaP cells; 0.5 μM BIC alone", "result": 85, "unit": "%"}, {"measurement": "relative percent colony survival", "setting": "LNCaP cells; 1.0 μM BIC alone", "result": 25, "unit": "%"}, {"measurement": "minimal inhibitory concentration (MIC) of bicalutamide", "setting": "LNCaP cells", "result": 1, "unit": "µM"}, {"measurement": "minimal inhibitory concentration (MIC) of bicalutamide", "setting": "LNCaP cells; listed as bicalutamide", "result": 0.5, "unit": "µM"}, {"measurement": "IC50", "setting": "PC3 cells; Homo sapiens, PC-3, PC3 clonogenic assay, read-out: IC50 of bicalutamide", "result": 10, "unit": "µM"}, {"measurement": "relative percent colony survival", "setting": "PC3 cells; PC3, 10 μM BIC alone", "result": 52, "unit": "%"}, {"measurement": "minimal inhibitory concentration (MIC) of bicalutamide", "setting": "PC3 cells; PC3, concentration that begins to inhibit colony formation", "result": 10, "unit": "µM"}, {"measurement": "TFRC Fold Change (single replicates)", "setting": "[4]; [9]", "result": "1.0 (2×) and 1.2"}, {"measurement": "TFRC Fold Change, Average", "setting": "[4]; [9]", "result": 1.1}]}
{"molecule": "PREESDKP [FT-007]", "values": [{"measurement": "FTH1 Fold Change, Average", "setting": "[1]; [10]", "result": 1.9}, {"measurement": "FTH1 Fold Change (single replicates)", "setting": "[1]; [11]", "result": "1.9 (2×) and 2.0"}, {"measurement": "TFRC Fold Change, Average", "setting": "[2]; [10]", "result": 0.7}, {"measurement": "TFRC Fold Change (single replicates)", "setting": "[2]; [11]", "result": "0.6 and 0.8 (2×)"}, {"measurement": "FTH1 Fold Change, Average", "setting": "[5]", "result": 1.9}, {"measurement": "TFRC Fold Change, Average", "setting": "[6]", "result": 0.8}]}
{"molecule": "REESDKPMY [FT-006]", "values": [{"measurement": "FTH1 Fold Change, Average", "setting": "[7]", "result": 2.6}, {"measurement": "FTH1 Fold Change, Average", "setting": "[3]; [12]", "result": 1.8}, {"measurement": "FTH1 Fold Change (single replicates)", "setting": "[3]; [13]", "result": "1.9 (2×) and 1.6"}, {"measurement": "TFRC Fold Change, Average", "setting": "[8]", "result": 0.6}, {"measurement": "TFRC Fold Change, Average", "setting": "[4]; [12]", "result": 0.9}, {"measurement": "TFRC Fold Change (single replicates)", "setting": "[4]; [13]", "result": "0.9 (2×) and 0.8"}]}
{"molecule": "REESGEL [FT-008]", "values": [{"measurement": "FTH1 Fold Change, Average", "setting": "[1]; [10]", "result": 1.8}, {"measurement": "FTH1 Fold Change (single replicates)", "setting": "[1]; [14]", "result": "1.8 (2×) and 1.9"}, {"measurement": "FTH1 Fold Change, Average", "setting": "[7]", "result": 2.5}, {"measurement": "TFRC Fold Change, Average", "setting": "[2]; [10]", "result": 0.9}, {"measurement": "TFRC Fold Change (single replicates)", "setting": "[2]; [14]", "result": "0.8 and 0.9 (2×)"}, {"measurement": "FTH1 Fold Change, Average", "setting": "[3]; [12]", "result": 2.0}, {"measurement": "FTH1 Fold Change (single replicates)", "setting": "[3]; [15]", "result": "1.8 and 1.9 and 2.2"}, {"measurement": "FTH1 Fold Change, Average", "setting": "[5]", "result": 2.2}, {"measurement": "TFRC Fold Change (single replicates)", "setting": "[6]", "result": 0.7}, {"measurement": "TFRC Fold Change, Average", "setting": "[6]", "result": 0.7}, {"measurement": "TFRC Fold Change, Average", "setting": "[8]", "result": 0.6}, {"measurement": "TFRC Fold Change, Average", "setting": "[4]; [12]", "result": 0.8}, {"measurement": "TFRC Fold Change (single replicates)", "setting": "[4]; [15]", "result": "0.8 (2×) and 0.9"}]}
